{"source": "patent US12527844B2", "about": "“Pharmaceutical formulations” (Novo Nordisk A/S, priority 2020, dated 2026)", "key": {"[1]": {"test": "PK after single s.c. administration via prefilled dual chamber syringe or separate injections", "assay_type": "in vivo, LYD pigs", "conditions": "for AUC/Dose [mean ± SD]: single s.c. dose", "procedure": "Female cross bred domestic pigs (Danish Landrace, Yorkshire and Duroc—LYD pigs), having a body weight of approximately 80-100 kg, were used for exploring PK profiles.\nA full plasma concentration-time profile was obtained from each animal, from pre-dosing to 18 days post dosing.\nPlasma was analysed by means of Luminescence Oxygen Channelling Immunoassay (LOCI) and Liquid Chromatography-Mass Spectrometry (LCMS) for semaglutide and cagrilintide, respectively. Non-compartmental pharmacokinetic analysis, using individual plasma concentration-time profiles, was performed."}, "[2]": {"test": "Semaglutide solubility in the pH range 3.5-7.5 (FIG. 2)", "assay_type": "physicochemical", "procedure": "FIG. 2 depicts semaglutide solubility in the pH range 3.5-7.5. […] Concentrations below ca. 0.6 mM indicate that no more than the analysed amount of semaglutide can be dissolved when the pH is below about 5.9."}, "[3]": {"conditions": "dual chamber syringe versus separate injections"}}, "note": "Read-outs that look alike come from different tables or passages of the source.", "data": [{"compound": "CC[C@H](C)[C@H](NC(=O)[C@H](Cc1ccccc1)NC(=O)[C@H](CCC(=O)O)NC(=O)[C@H](CCCCNC(=O)COCCOCCNC(=O)COCCOCCNC(=O)CC[C@H](NC(=O)CCCCCCCCCCCCCCCCC(=O)O)C(=O)O)NC(=O)[C@H](C)NC(=O)[C@H](C)NC(=O)[C@H](CCC(N)=O)NC(=O)CNC(=O)[C@H](CCC(=O)O)NC(=O)[C@H](CC(C)C)NC(=O)[C@H](Cc1ccc(O)cc1)NC(=O)[C@H](CO)NC(=O)[C@H](CO)NC(=O)[C@@H](NC(=O)[C@H](CC(=O)O)NC(=O)[C@H](CO)NC(=O)[C@@H](NC(=O)[C@H](Cc1ccccc1)NC(=O)[C@@H](NC(=O)CNC(=O)[C@H](CCC(=O)O)NC(=O)C(C)(C)NC(=O)[C@@H](N)Cc1cnc[nH]1)[C@@H](C)O)[C@@H](C)O)C(C)C)C(=O)N[C@@H](C)C(=O)N[C@@H](Cc1c[nH]c2ccccc12)C(=O)N[C@@H](CC(C)C)C(=O)N[C@H](C(=O)N[C@@H](CCCNC(=N)N)C(=O)NCC(=O)N[C@@H](CCCNC(=N)N)C(=O)NCC(=O)O)C(C)C", "note": "[semaglutide, N^6,26-{18-[N-(17-carboxyheptadecanoyl)-L-γ-glutamyl]-10-oxo-3,6,12,15-tetraoxa-9,18-diazaoctadecanoyl}-[8-(2-amino-2-propanoic acid),34-L-arginine]human glucagon-like peptide 1(7-37)]", "values": [{"measurement": "AUC/Dose % increase (Co-dosing vs. dual-chamber syringe)", "setting": "[1]; [3]", "value": "~13", "unit": "%"}, {"measurement": "Cmax % increase (Co-dosing vs. dual-chamber syringe)", "setting": "[1]; [3]", "value": "~22", "unit": "%"}, {"measurement": "t½ % increase (Co-dosing vs. dual-chamber syringe)", "setting": "[1]; [3]", "value": "~0", "unit": "%"}, {"measurement": "AUC/Dose [mean ± SD]", "setting": "[1]; group Dual chamber syringe 2.4/2.4", "value": "1560 ± 229", "unit": "kg·h/L"}, {"measurement": "AUC/Dose [mean ± SD]", "setting": "[1]; group Mono (separate injections per title)", "value": "1380 ± 78.1", "unit": "kg·h/L"}, {"measurement": "solubility", "setting": "[2]; pH above about 5.9, read-out: maximum solubility", "value": "> 600", "unit": "µM"}, {"measurement": "solubility", "setting": "[2]; pH below about 5.9, read-out: solubility (dissolved concentration)", "value": "< 600", "unit": "µM"}]}]}
